From patent US6392049B1, “Process for preparing 2,4-dihydroxypyridine and 2,4-dihydroxy-3-nitropyridine” (Aventis Pharmaceuticals Inc., priority 1996, dated 2002)
Read-outs that look alike come from different tables or passages of the source.

Tests used:
A1 receptor = target: T1, A1 receptor (Rattus norvegicus, UniProt P25099); assay: A1 adenosine receptor binding, displacement of 3H-CHA, whole rat brain membranes; conditions: 3H-CHA displacement, 25° C., 60 minutes
T1 construct: using a membrane preparation of whole rat brain; from tissue; host or cells: whole rat brain membranes
T1 sequence (P25099 1-326): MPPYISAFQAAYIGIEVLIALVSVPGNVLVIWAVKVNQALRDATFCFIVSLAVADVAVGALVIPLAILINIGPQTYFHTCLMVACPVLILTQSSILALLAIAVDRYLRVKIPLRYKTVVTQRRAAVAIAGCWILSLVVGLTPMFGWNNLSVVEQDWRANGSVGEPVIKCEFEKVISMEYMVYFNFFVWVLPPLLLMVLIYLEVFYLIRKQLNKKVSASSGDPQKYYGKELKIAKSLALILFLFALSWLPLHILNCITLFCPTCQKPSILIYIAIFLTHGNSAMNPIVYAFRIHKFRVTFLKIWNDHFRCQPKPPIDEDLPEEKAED
Method: Non-specific binding is assessed in the presence of 1 mM theophylline.
(§1) The assays are run in glass test tubes in duplicate at 25° C. Once the membranes are added, the tubes are vortexed and incubated at 25° C. for 60 minutes (A1 assay) or 90 minutes (A2 assay) on a rotary shaker. The assay tubes are vortexed halfway through the incubation and again near the end. The assays are terminated by rapid filtration through 2.4 cm GF/B filters using a Brandel Cell Harvestor. The test tubes are washed three times with cold 50 mM tris-HCl (pH 7.7 or 7.4), with filtration being completed within 15 seconds. The damp filter circles are placed in glass scintillation vials filled with 10 ml of Aquasol II (New England Nuclear). The vials are allowed to shake overnight on a rotary shaker and are placed into a liquid scintillation analyzer for two minute counts. IC50 values for receptor binding, i.e. the concentration at which a compound of Formula I displaced the radiolabeled standard, are obtained using a curve-fitting computer program (RS/1, Bolt, Beranek and Newman, Boston, Mass.).

swine coronary arteries = assay: In vitro vasorelaxation in isolated swine coronary arteries; type: cell-based
Method: Swine coronary arteries are obtained from a local slaughter house, dissected carefully and cleaned of fat, blood and adhering tissue. Rings approximately 2-3 mm wide are cut and transferred to water-jacketed tissue baths (10 mL) filled with warm (37° C.), oxygenated (O2/CO2:95%/5%) Krebs-Henseleit buffer and mounted on L-shaped hooks between stainless steel rods and a force transducer. […] PGF2a, before being exposed to 3 μM PGF2a.

[1] = tested on: normotensive anesthetized rat; assay: Mean arterial blood pressure and heart rate in normotensive anesthetized rat; type: in vivo; conditions: for Anesthetized Rat HR/ED25: intravenous dose lowering heart rate by 25%; for Anesthetized Rat MAP/ED25: intravenous dose lowering mean arterial pressure by 25%
Method: Normotensive rats are anesthetized with sodium pentobarbital (50 mg/kg, i.p.) and placed on a heated surgical table. Cannulas are inserted into the femoral artery and veined to allow the measurement of arterial pressure and to facilitate the intravenous administration of test compounds. The animals are allowed to equilibrate for 10 minutes after surgery. Mean arterial pressure is continuously measured and recorded and heart rate is monitored using the arterial pressure pulse to trigger a cardiotachometer. After baseline parameters are established and recorded, increasing doses (1, 3, 10, 30, 100, 300 and 1000 μg/kg) of the compound of Formula I to be tested are administered intravenously. Maximal changes in the cardiovascular parameters are observed after each dose of the adenosine agonist. Only one compound is administered per rat.

A2 receptor = target: T2, A2 receptor (Rattus norvegicus, UniProt P30543); assay: A2 adenosine receptor binding, displacement of 3H-CGS 21680, rat brain striatum membranes; conditions: 3H-CGS 21680 displacement, rat brain striatum membranes, 25° C., 90 minutes; read-out: Adenosine Receptor Binding Activity/IC50 (nM) A2
T2 construct: using membranes from rat brain striatum; from tissue; host or cells: rat brain striatum membranes
Method: Non-specific binding is assessed in the presence of 20 μm 2-chloroadenosine.
as §1

[2] = Sus scrofa, read-out: Vasorelaxation in Swine Coronary Artery/IC50 (μM)
[3] = 50% reduction in tension of rings contracted with 3 μM PGF2a, read-out: Vasorelaxation in Swine Coronary Artery/IC50

T2 sequence (P30543 whole entry): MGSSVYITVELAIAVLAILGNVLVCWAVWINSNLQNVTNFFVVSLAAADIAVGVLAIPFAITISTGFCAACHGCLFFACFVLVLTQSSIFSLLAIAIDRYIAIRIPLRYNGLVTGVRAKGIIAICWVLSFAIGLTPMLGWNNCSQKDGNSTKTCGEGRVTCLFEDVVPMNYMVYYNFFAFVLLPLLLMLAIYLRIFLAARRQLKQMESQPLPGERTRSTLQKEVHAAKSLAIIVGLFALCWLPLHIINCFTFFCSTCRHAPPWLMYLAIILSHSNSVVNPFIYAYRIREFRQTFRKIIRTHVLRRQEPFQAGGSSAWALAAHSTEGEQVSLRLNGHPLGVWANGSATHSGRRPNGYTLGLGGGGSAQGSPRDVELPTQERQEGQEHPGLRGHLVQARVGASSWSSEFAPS

IC50 (A1 receptor) [nM]	IC50 (A2 receptor) [nM]	IC50 (swine coronary arteries; [3]) [µM]	Structure (SMILES)	IC50 (swine coronary arteries; [2]) [µM]	Anesthetized Rat HR/ED25 [1] [µg/kg]	Anesthetized Rat MAP/ED25 [1] [µg/kg]
5	138		OC[C@H]1O[C@@H](n2cnc3c(N[C@@H]4CC=CC[C@H]4c4ccsc4)ncnc32)[C@H](O)[C@@H]1O (relative stereo) [Example 8, N^6-[trans-2-(thiophen-3-yl)-cyclohex-4-en-1-yl]adenosine]		23	10
> 1000	> 1000		CCNC(=O)[C@H]1C[C@@H](n2cnc3c(NCCc4scnc4C)ncnc32)[C@H](O)[C@@H]1O (relative stereo) [Example 24, (±)-N^6-[2-(4″-methyl-5″-thiazolyl)ethyl]carbocydic adenosine-5′-N-ethyl carboxamide]		>10	6
4	1000	11.9	OC[C@H]1O[C@@H](n2cnc3c(NCCNc4nc5ccccc5s4)ncnc32)[C@H](O)[C@@H]1O [Example 9, N^6-[2-(2′-aminobenzothia-zolyl)ethyl]adenosine]		4	5
23	224	0.5	Cc1ncsc1CCNc1ncnc2c1ncn2[C@@H]1O[C@H](CO)[C@@H](O)[C@H]1O [Example 12, N^6-[2-(4′-methylthiazol-5′-yl)-ethyl]adenosine]		17	4
41	191	0.24	OC[C@H]1O[C@@H](n2cnc3c(NCCc4nccs4)ncnc32)[C@H](O)[C@@H]1O [Example 13, N^6-[2-(2′-thiazolyl)ethyl]-adenosine]		>10	3
166	52	0.46	Cc1csc(CNc2ncnc3c2ncn3[C@@H]2O[C@H](CO)[C@@H](O)[C@H]2O)n1 [Example 18, N^6-[2-(4′-methyl-2′-thiazolyl)-methyl]adenosine]		>10	2
0.32	891	4.4	CCNC(=O)[C@H]1O[C@@H](n2cnc3c(NCCNc4nc5ccccc5s4)ncnc32)[C@H](O)[C@@H]1O [Example 23]		7	6

Structure (SMILES)	IC50 (A1 receptor) [nM]	IC50 (A2 receptor) [nM]	IC50 (swine coronary arteries; [3]) [µM]	IC50 (swine coronary arteries; [2]) [µM]	Anesthetized Rat HR/ED25 [1] [µg/kg]	Anesthetized Rat MAP/ED25 [1] [µg/kg]
CCNC(=O)[C@H]1C[C@@H](n2cnc3c(NCCc4cccs4)ccnc32)[C@H](O)[C@@H]1O (racemic) [Example 30, (±)-N6-[1-(thiopheny-2-yl)ethan-2-yl]-N′-1-deazaaristeromycin-5′-N-ethyl carboxamide]	562	> 1000		12.1	>10	6
OC[C@H]1O[C@@H](n2cnc3c(N[C@@H]4CCCC[C@H]4c4cccs4)ncnc32)[C@H](O)[C@@H]1O (relative stereo) [Example 7, N^6-[trans-2-(thiophen-2-yl)-cyclohex-1-yl]adenosine]	3.5	28		4	18	6
C[C@H](Cc1cc2ccccc2s1)Nc1ncnc2c1ncn2[C@@H]1O[C@H](CO)[C@@H](O)[C@H]1O [Example 15, N^6-[(R)-1-methyl-2-(2′benzo-[b]-thiophenyl)ethyl]adenosine]	4.07			2.45	1.4	1.5
